{"source": "patent US20110152362A1", "about": "“METHODS OF TREATING EPILEPTOGENESIS AND EPILEPSY” (priority 2004, published 2011)", "key": {"[1]": {"test": "Blood levels in rats, oral administration of Test Compound for 8 days (toxicology studies)", "format": "in vivo", "conditions": "rat; for Cmax at 8 days: blood", "text": "In toxicology studies in rats, oral administration of Test Compound (TC) for 8 days produced the following C max and AUC: […]"}, "[2]": {"test_system": "rats subjected to Li-pilo induced SE", "test": "Example 1: mortality induced by lithium-pilocarpine status epilepticus", "format": "in vivo, rat", "experimental": "(§1) The bilateral EEG cortical activity was recorded during the whole duration of SE and behavioral changes were noted.\n(§2) The effects of increasing doses of the Test Compound were studied on 3 groups of rats. The animals of the first group received 10 mg/kg of the test compound, i.p., 1 h after the onset of SE (pilo-TC10) while the animals of groups 2 and 3 received 30 and 60 mg/kg of the Test Compound (pilo-TC30 and pilo-TC60), respectively.\n(§3) The control group received saline instead of pilocarpine and the Test Compound (saline-saline). […] Pilo-DZP received a second injection of 1 mg/kg DZP on the day of SE at about 10 h after the first one. Thereafter, Pilo-DZP and saline-saline rats received twice daily an equivalent volume of saline."}, "[3]": {"test_system": "rats subjected to Li-pilo induced SE", "test": "Example 1: quantification of cell densities in hippocampus, thalamus and cortex after Li-pilo SE", "format": "in vivo, rat", "experimental": "as §2, §3\nQuantification of cell densities was performed at 6 days after SE on 8 pilo-DZP, 8 pilo-TC10, 7 pilo-TC30, 7 pilo-TC60, and 6 saline-saline rats. […] Counts involved only cells larger than 10 μm, smaller ones being considered as glial cells.\nFor the comparison of the characteristics of SE in pilo-saline and pilo-test compound animals, a non-paired Student's t-test was used. The comparison between the number of rats seizing in both groups was performed by means of a Chi square test. For neuronal damage, statistical analysis between groups was performed using ANOVA followed by a Fisher's test for multiple comparisons using the Statview software (Fisher R A, 1946a, Statistical Methods for Research Workers (10th edition) Oliver & Boyd, Edinburgh; Fisher R A, 1946b, The Design of Experiments (4th edition) Oliver & Boyd, Edinburgh)"}, "[4]": {"test_system": "rats subjected to Li-pilo induced SE", "test": "Example 1: latency to and frequency of spontaneous recurrent seizures (SRS), lithium-pilocarpine model", "format": "in vivo, rat", "experimental": "as §1, §2, §3\nThe effects of the test compound on the EEG and on the latency to occurrence of SRS were investigated by daily video recording of the animals for 10 h per day and the recording of the electrographic activity twice a week for 8 h.\nTo calculate the frequency of SRS in pilocarpine-exposed rats, the seizure severity and distinguished stage III (clonic seizures of facial muscles and anterior limbs) and stage IV-V seizures (rearing and falling) was measured. The frequency of stage III SRS per week in pilo-DZP and pilo-test compound rats was variable amongst the groups. It was low, constant in the pilo-DZP and pilo-TC60 (with early SRS onset) groups during the first 3 weeks and had disappeared during the 4th week in the pilo-DZP group. […] The frequency of more severe stage IV-V SRS was highest during the first week in most groups, except pilo-TC30 and TC60 with late seizure onset where the SRS frequency was constant over the whole 4 weeks in TC30 group and over the first two weeks in the pilo-TC60 group with late SRS onset in which no stage IV-V seizures where no seizures recorded after the second week."}}, "data": [{"smiles": "NC(=O)OC[C@@H](O)c1ccccc1Cl", "note": "[TC]", "values": [{"measurement": "Cmax at 8 days", "setting": "[1]; oral 30 mg/kg/day for 8 days", "result": 9330, "unit": "ng/mL"}, {"measurement": "Cmax at 8 days", "setting": "[1]; oral 100 mg/kg/day for 8 days", "result": 20600, "unit": "ng/mL"}, {"measurement": "Cmax at 8 days", "setting": "[1]; oral 300 mg/kg/day for 8 days", "result": 70300, "unit": "ng/mL"}, {"measurement": "AUC", "setting": "[1]; oral 30 mg/kg/day for 8 days", "result": 97.32, "unit": "micrograms-hour/mL"}, {"measurement": "AUC", "setting": "[1]; oral 100 mg/kg/day for 8 days", "result": 230.33, "unit": "micrograms-hour/mL"}, {"measurement": "AUC", "setting": "[1]; oral 300 mg/kg/day for 8 days", "result": 525.95, "unit": "micrograms-hour/mL"}, {"measurement": "mortality during the first 48 h after SE", "setting": "[2]; pilo-TC10, 10 mg/kg i.p.", "result": 26, "unit": "%"}, {"measurement": "mortality during the first 48 h after SE", "setting": "[2]; pilo-TC30, 30 mg/kg i.p.", "result": 20, "unit": "%"}, {"measurement": "mortality during the first 48 h after SE", "setting": "[2]; pilo-TC60, 60 mg/kg i.p.", "result": 4, "unit": "%"}, {"measurement": "protective effects at lowest dose tested in Example 1", "setting": "[3]; 10 mg/kg/day", "result": "minimal or no protective effects"}, {"measurement": "protection in CA3b", "setting": "[3]; 60 mg/kg", "result": "significantly neuroprotective"}, {"measurement": "reduction of neuronal damage, lateral thalamic nucleus", "setting": "[3]; 60 mg/kg dose", "result": 65, "unit": "%"}, {"measurement": "reduction of neuronal damage, mediodorsal thalamic nucleus", "setting": "[3]; 60 mg/kg dose", "result": 42, "unit": "%"}, {"measurement": "neuroprotection compared to pilo-DZP rats, ventral entorhinal cortex layers III-IV", "setting": "[3]; TC60 administration", "result": 31, "unit": "%"}, {"measurement": "reduction of neuronal damage recorded in pilo-DZP rats, piriform cortex layer II", "setting": "[3]; TC60 treatment", "result": 41, "unit": "%"}, {"measurement": "reduction of neuronal damage recorded in pilo-DZP rats, piriform cortex layers III-IV", "setting": "[3]; TC60 treatment", "result": 44, "unit": "%"}, {"measurement": "worsening of cell loss compared with pilo-DZP rats, dorsal entorhinal cortex layers III-IV", "setting": "[3]; pilo-TC10 rats", "result": 28, "unit": "% more damage"}, {"measurement": "worsening of cell loss compared with pilo-DZP rats, ventral entorhinal cortex layers III-IV", "setting": "[3]; pilo-TC10 rats", "result": 35, "unit": "% more damage"}, {"measurement": "cell loss, CA1 pyramidal layer", "setting": "[3]; pilo-TC30 animals", "result": 35, "unit": "%"}, {"measurement": "cell loss, CA1 pyramidal layer", "setting": "[3]; pilo-TC60 animals", "result": 16, "unit": "%"}, {"measurement": "cell loss in the hilus of dentate gyrus", "setting": "[3]; pilo-test compound animals (10, 30, 60 mg/kg)", "result": "69-72%"}, {"measurement": "protection in the CA3a area", "setting": "[3]; test compound 10, 30, 60 mg/kg", "result": "did not afford any protection"}, {"measurement": "rats in which occurrence of spontaneous seizures was delayed", "setting": "[4]; TC 60 mg/kg (4 out of 11)", "result": 36, "unit": "%"}, {"measurement": "mean delay to epilepsy in subgroup vs other groups of animals", "setting": "[4]; TC 60 mg/kg, subgroup", "result": "about 9 fold longer"}, {"measurement": "latency to SRS", "setting": "[4]; TC60, subgroup with latency similar to other groups (n=7)", "result": "17.6 ± 8.7", "unit": "days"}, {"measurement": "latency to SRS, mean", "setting": "[4]; TC60, subgroup with much longer delay (n=4)", "result": "149.8 ± 36.0", "unit": "days"}, {"measurement": "frequency of stage IV-V SRS", "setting": "[4]; first week, TC10, TC30 and TC60 (with early SRS onset) groups", "result": "2.3-6.1 SRS per week"}, {"measurement": "frequency of stage III SRS", "setting": "[4]; pilo-TC10 group, weeks 3 and 4", "result": "significantly increased over pilo-DZP values"}, {"measurement": "latency to SRS", "setting": "[4]; pilo-TC10 rats", "result": "15.4 ± 5.1", "unit": "days"}, {"measurement": "latency to SRS", "setting": "[4]; pilo-TC30 rats", "result": "18.9 ± 9.0", "unit": "days"}, {"measurement": "frequency of stage IV-V SRS", "setting": "[4]; weeks 2-4, pilo-TC60 group with early SRS onset", "result": "0.6-0.9 seizure per week"}]}]}
